Among the test systems are A498; COLO 205; HCT-15; HL-60; HOP-92; HT-29; NCI-H226; NCI-H460; NCI/ADR-RES; OVCAR-3; OVCAR-4; SF-268; SK-MEL-5; SK-OV-3; SR; SW-620; T47D; TK-10; U-251.
What all share (assay): NCI-60 cell line screen, 48 h

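96-well plates; 48 h exposure; 5 concentrations. Endpoints by linear interpolation between flanking doses. Not reached: highest tested concentration assigned. Here, GI50 denotes the concentration required for 50% inhibition of growth.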 The source made the active and inactive calls. No stated cut-off is given here; in the data, active = GI50 up to about 1.1 µM and inactive = higher.

Consider `CCOC(=O)C(NC(=O)CC(C)C)(N1CCN(c2cc3c(cc2F)c(=O)c(C(=O)O)cn3C2CC2)CC1)C(F)(F)F` (centres undefined), for which the GI50 with A498 was 1.73 µM (inactive); in the experiment with COLO 205, 16.7 µM (inactive); in the experiment with HCT-15, 10 µM; in the experiment with HL-60 it was 5.75 µM (inactive); in the experiment on HOP-92 it was 9.57 µM (inactive); with HT-29 it was 29.3 µM (inactive). Moreover, the GI50 is 20.7 µM (inactive) in the experiment on NCI-H226; 28.1 µM (inactive) in the experiment with NCI-H460; 19.7 µM (inactive) with NCI/ADR-RES; 14.7 µM (inactive) in the experiment on OVCAR-3; 20.8 µM (inactive) in the experiment on OVCAR-4; 11.1 µM (inactive) in the experiment on SF-268. In addition, the GI50 is 12.7 µM (inactive) in the experiment with SK-MEL-5; 24 µM (inactive) in the experiment with SK-OV-3; 11.6 µM (inactive) with SR; 19.6 µM (inactive) in the experiment on SW-620; 22.9 µM (inactive) in the experiment on T47D; 10.3 µM (inactive) in the experiment with TK-10. For the same molecule, the GI50 in the experiment on U-251 is 14.7 µM (inactive).
As to `O=C(O)[C@H]1NC[C@@H]2ON=C(Br)[C@@H]21`, the GI50 in the experiment on A498 was > 100 µM (inactive); in the experiment on COLO 205, > 100 µM (inactive); in the experiment on HCT-15, greater than 100 µM; in the experiment on HL-60 it was > 100 µM (inactive); in the experiment on HOP-92, > 100 µM (inactive); in the experiment on HT-29, > 100 µM (inactive). In addition, the GI50 in the experiment with NCI-H226, with NCI-H460, in the experiment with NCI/ADR-RES, in the experiment on OVCAR-3, in the experiment on OVCAR-4 and in the experiment with SF-268 was > 100 µM (inactive) each time. Moreover, the GI50 with SK-MEL-5, in the experiment on SK-OV-3, in the experiment with SR, in the experiment with SW-620, with T47D and in the experiment with TK-10 was > 100 µM (inactive) in each case. Moreover, the GI50 with U-251 was > 100 µM (inactive).
With `O=C(CC(=O)Nc1ccccc1)NNC(Sc1ccccc1)c1cc(/N=N/c2ccc(Br)cc2)ccc1O` (centres undefined), the GI50 in the experiment with A498 is 1.91 µM (inactive); in the experiment with COLO 205, 3.2 µM (inactive); in the experiment with HCT-15, 0.678 µM; in the experiment with HL-60, 0.356 µM (active); in the experiment with HOP-92, 4.51 µM (inactive); with HT-29, 8.13 µM (inactive). Moreover, the GI50 is 0.444 µM (active) with NCI-H226; 0.773 µM (active) in the experiment on NCI-H460; 1.26 µM (inactive) in the experiment with NCI/ADR-RES; 0.394 µM (active) in the experiment on OVCAR-3; 1.56 µM (inactive) in the experiment with OVCAR-4; 0.587 µM (active) in the experiment with SF-268. Moreover, the GI50 in the experiment with SK-MEL-5 was 1.06 µM (active); in the experiment with SK-OV-3, 4.21 µM (inactive); with SR, 0.353 µM (active); in the experiment with SW-620, 0.931 µM (active); with T47D it was 3.51 µM (inactive); in the experiment on TK-10, 1.45 µM (inactive). The GI50 with U-251 was 6.31 µM (inactive).
In the case of `N=C(N)SCCCN`, the GI50 is 32.1 µM (inactive) in the experiment on A498; 13.7 µM (inactive) in the experiment on COLO 205; 5.02 µM in the experiment on HCT-15; 1.87 µM (inactive) with HL-60; 4.94 µM (inactive) in the experiment with HOP-92; 16 µM (inactive) in the experiment with HT-29. For the same molecule, the GI50 in the experiment with NCI-H226 was 18.3 µM (inactive); with NCI-H460, 4.13 µM (inactive); in the experiment on NCI/ADR-RES, 5.02 µM (inactive); in the experiment with OVCAR-3, 9.57 µM (inactive); in the experiment on OVCAR-4, 6.5 µM (inactive); in the experiment with SF-268 it was 5.3 µM (inactive). In addition, the GI50 in the experiment with SK-MEL-5 was 15 µM (inactive); in the experiment on SK-OV-3 it was 22.4 µM (inactive); in the experiment with SR it was 3.3 µM (inactive); in the experiment with SW-620, 26.4 µM (inactive); in the experiment on T47D, 32.2 µM (inactive); in the experiment on TK-10, 3.65 µM (inactive). Further, the GI50 in the experiment on U-251 was 6.11 µM (inactive).
As to `O=C(NC(Nc1ccc(F)c(Cl)c1)(C(F)(F)F)C(F)(F)F)OCc1ccccc1`, the GI50 in the experiment with A498 is 37.2 µM (inactive); in the experiment on COLO 205, 17.8 µM (inactive); in the experiment with HCT-15, 22.4 µM; in the experiment on HL-60 it was 11.5 µM (inactive); in the experiment on HOP-92, 23.2 µM (inactive); with HT-29, 34 µM (inactive). Further, the GI50 in the experiment on NCI-H226 is > 100 µM (inactive); with NCI-H460, 85.1 µM (inactive); in the experiment on NCI/ADR-RES, 27.7 µM (inactive); with OVCAR-3, 17.3 µM (inactive); with SF-268, 62.7 µM (inactive); with SK-MEL-5, 44.1 µM (inactive). Also, the GI50 in the experiment on SK-OV-3 was 26 µM (inactive); with SR it was 11 µM (inactive); in the experiment with SW-620 it was 61.7 µM (inactive); in the experiment on T47D, 28.1 µM (inactive); in the experiment on TK-10 it was 63.1 µM (inactive); in the experiment on U-251, 29.2 µM (inactive).
For the molecule `CCCCCCCCCCCCc1ccsc1-c1ccc(-c2ccc(-c3sccc3CCCCCCCCCCCC)s2)s1`, the GI50 in the experiment with A498 is > 100 µM (inactive); in the experiment on COLO 205, > 100 µM (inactive); in the experiment on HCT-15, greater than 100 µM; in the experiment with HL-60, > 100 µM (inactive); in the experiment on HOP-92, > 100 µM (inactive); in the experiment with HT-29, > 100 µM (inactive). Besides, the GI50 in the experiment on NCI-H226, in the experiment on NCI-H460, in the experiment with NCI/ADR-RES, with OVCAR-3, in the experiment with SF-268 and in the experiment with SK-MEL-5 was > 100 µM (inactive) each time. The GI50 with SK-OV-3, with SR, in the experiment with SW-620, in the experiment with T47D, with TK-10 and in the experiment with U-251 was > 100 µM (inactive) in each case.
For the molecule `O=c1n(CCCN2CCOCC2)nc2n1-c1ccc3ccccc3c1SC2`, the GI50 with A498 was 89.9 µM (inactive); with COLO 205, 1.43 µM (inactive); in the experiment on HCT-15 it was 27.7 µM; with HL-60, 31.1 µM (inactive); in the experiment on HOP-92 it was > 100 µM (inactive); in the experiment with HT-29, 19 µM (inactive). Further, the GI50 with NCI-H226 is > 100 µM (inactive); in the experiment with NCI-H460 it was 30.2 µM (inactive); in the experiment on NCI/ADR-RES it was 67.5 µM (inactive); with OVCAR-3, 95.7 µM (inactive); with OVCAR-4 it was 56.9 µM (inactive); in the experiment on SK-MEL-5 it was 29.4 µM (inactive). Moreover, the GI50 with SK-OV-3 was 63.2 µM (inactive); with SR, 71.6 µM (inactive); in the experiment on SW-620 it was 37.5 µM (inactive); in the experiment on T47D, 61.8 µM (inactive); with TK-10, 84.1 µM (inactive); with U-251, 57.9 µM (inactive).
Take `COc1ccc(C[n+]2cccc(O)c2)cc1`: the GI50 in the experiment with A498 is > 100 µM (inactive); in the experiment with HCT-15, greater than 10 µM; in the experiment on HL-60, > 100 µM (inactive); in the experiment with HOP-92, > 100 µM (inactive); with HT-29, > 100 µM (inactive); in the experiment with NCI-H226, > 100 µM (inactive). In addition, the GI50 in the experiment on NCI-H460, in the experiment on NCI/ADR-RES, in the experiment with OVCAR-3, in the experiment on SF-268, in the experiment on SK-MEL-5 and with SK-OV-3 was > 100 µM (inactive) throughout. The GI50 in the experiment with SR, with SW-620, in the experiment with T47D, in the experiment on TK-10 and in the experiment with U-251 was > 100 µM (inactive) each time.
As for `COc1c(O)cc2c(c1O)C(=O)C(Cc1ccc(O)cc1)CO2` (centres undefined), the GI50 in the experiment on A498 was > 100 µM (inactive); with COLO 205, > 100 µM (inactive); in the experiment with HCT-15, 44 µM; in the experiment on HL-60 it was 28.1 µM (inactive); in the experiment with HOP-92, 68.2 µM (inactive); in the experiment on HT-29 it was > 100 µM (inactive). Further, the GI50 was 44.6 µM (inactive) in the experiment on NCI-H460; 32.7 µM (inactive) in the experiment with NCI/ADR-RES; 93.1 µM (inactive) in the experiment on OVCAR-3; 40.3 µM (inactive) with OVCAR-4; > 100 µM (inactive) with SF-268; 84.9 µM (inactive) in the experiment with SK-MEL-5. Also, the GI50 in the experiment with SK-OV-3 was 68.9 µM (inactive); with SR, 24.9 µM (inactive); in the experiment with SW-620 it was > 100 µM (inactive); in the experiment on T47D, > 100 µM (inactive); in the experiment with TK-10, > 100 µM (inactive); with U-251, > 100 µM (inactive).
As for `CCOC(=O)C1=c2[nH]c3cccc4cccc(c43)n2C(=O)CC1c1ccccc1` (centres undefined), the GI50 is > 100 µM (inactive) in the experiment on A498; > 100 µM (inactive) in the experiment on COLO 205; greater than 100 µM in the experiment with HCT-15; 95.5 µM (inactive) with HL-60; > 100 µM (inactive) in the experiment with HOP-92; > 100 µM (inactive) with HT-29. Also, the GI50 with NCI-H226, in the experiment with NCI-H460, in the experiment with NCI/ADR-RES, in the experiment on OVCAR-4, in the experiment with SF-268 and in the experiment with SK-MEL-5 was > 100 µM (inactive) each time. Besides, the GI50 with SK-OV-3, with SR, in the experiment with SW-620, in the experiment on T47D, in the experiment with TK-10 and with U-251 was > 100 µM (inactive) in each case.
In the case of `CNC(=O)c1nn[nH]c1O`, the GI50 is > 100 µM (inactive) in the experiment on A498; > 100 µM (inactive) with COLO 205; greater than 100 µM in the experiment with HCT-15; > 100 µM (inactive) with HL-60; > 100 µM (inactive) in the experiment on HOP-92; > 100 µM (inactive) in the experiment with HT-29. Moreover, the GI50 in the experiment on NCI-H226 is > 100 µM (inactive); with NCI-H460 it was > 10 µM (inactive); with NCI/ADR-RES, > 100 µM (inactive); in the experiment with SF-268, > 100 µM (inactive); in the experiment with SK-MEL-5, > 100 µM (inactive); in the experiment with SK-OV-3 it was > 100 µM (inactive). Besides, the GI50 in the experiment on SR, in the experiment on SW-620, in the experiment with T47D and in the experiment on U-251 was > 100 µM (inactive) each time.
